The results in this text go back to article PMC12040169 (PLOS Biology, 2025).

The data set is described as follows: in vitro. The conditions noted are these: human, hela cells, % viability.

A word on the viability: it is a read-out of living cells in per cent, often relative to untreated cells. In the case of `Nc1ncc2ncn([C@@H]3O[C@H](CO)[C@H](O)C3O)c2n1` (stereo partly shown) [CBK201318], the viability at 28.5 h, 10 µM was 92.8%.
On to `Cc1cn2c(=O)c3ncn([C@H]4C[C@@H](O)[C@@H](CO)O4)c3nc2[nH]1` [CBK201320], for which the viability at 28.5 h, 10 µM came to 86.6%.
For `Nc1ncnc2c1c(I)cn2[C@@H]1O[C@H](CO)[C@H](O)C1O` (stereo partly shown) [CBK201321], the viability at 28.5 h, 10 µM came to 16.5%.
`Nc1nc(N)c([C@H]2C[C@@H](O)[C@@H](CO)O2)nc1Cl` [CBK201326]: the viability at 28.5 h, 10 µM was determined as 103%.
As for `Cc1cn([C@H]2C[C@@H](O)[C@@H](CO)O2)c(N)nc1=O` [CBK201327], the viability at 28.5 h, 10 µM was determined as 100%.
As for `COC1C(O)C(CO)OC1n1cnc2c(=O)[nH]cnc21` (stereo not shown) [CBK201328], the figure is 91.3%.
As for `O=c1[nH]c(=O)c2ccn([C@H]3C[C@@H](O)[C@@H](CO)O3)c2[nH]1` [CBK201331], the figure is 99%; as for `O=c1[nH]c(=O)n([C@H]2C[C@@H](O)[C@@H](CO)O2)cc1CO` [CBK201332], 94%; as for `COC(=O)/C=C/c1cn(C2OC(CO)C(O)C2O)c(=O)[nH]c1=O` (stereo not shown) [CBK201339], 106%.
`O=C(O)C1CCN(C(=O)Cc2c[nH]c3ccccc23)CC1` [CBK202747]: the viability at 28.5 h, 10 µM is 82.7%.
In the case of `COc1cccc(N2CCN(CC(=O)N3CCC(C(N)=O)CC3)CC2)c1` [CBK202881] it was 106%; in that of `O=C(NCC1CCCO1)C1CCCN(C(=O)c2cc(-c3ccccn3)[nH]n2)C1` (stereo not shown) [CBK210893], 91.7%; in that of `CN(C)CCCNC(=O)C1CCN(c2nc3c(-c4ccccc4F)csc3c(=O)[nH]2)CC1` [CBK215438], 93.7%.
For the molecule `O=C(NCCN1CCOCC1)C1CCN(c2nc3c(-c4ccccc4F)csc3c(=O)[nH]2)CC1` [CBK215442], the viability at 28.5 h, 10 µM is 104%.
Take `COc1cccc(CNC(=O)C2CCCN(c3nc4c(-c5ccccc5)csc4c(=O)[nH]3)C2)c1` (stereo not shown) [CBK215463]: the viability at 28.5 h, 10 µM was 99.8%.
As for `O=C(NCc1ccncc1)C1CCCN(c2nc3c(-c4ccccc4)csc3c(=O)[nH]2)C1` (stereo not shown) [CBK215493], the figure is 107%; as for `COCCNC(=O)C1CCCN(c2nc3c(-c4ccccc4)csc3c(=O)[nH]2)C1` (stereo not shown) [CBK215497], 114%; as for `COCCCNC(=O)C1CCCN(c2nc3c(-c4ccccc4)csc3c(=O)[nH]2)C1` (stereo not shown) [CBK215498], 94%.
As for `CN(C)CCNC(=O)C1CCCN(c2nc3c(-c4ccccc4)csc3c(=O)[nH]2)C1` (stereo not shown) [CBK215501], the figure is 88.3%; as for `CN(C)CCCNC(=O)C1CCCN(c2nc3c(-c4ccccc4)csc3c(=O)[nH]2)C1` (stereo not shown) [CBK215504], 94.6%; as for `O=C(NCCN1CCCC1)C1CCCN(c2nc3c(-c4ccccc4)csc3c(=O)[nH]2)C1` (stereo not shown) [CBK215507], 109%.
Take `O=C(NCCN1CCOCC1)C1CCCN(c2nc3c(-c4ccccc4)csc3c(=O)[nH]2)C1` (stereo not shown) [CBK215509]: the viability at 28.5 h, 10 µM was found to be 106%.
Regarding `Cc1ccc(-c2csc3c(=O)[nH]c(N4CCCC(C(=O)NCC(N)=O)C4)nc23)cc1` (stereo not shown) [CBK215542], the viability at 28.5 h, 10 µM came to 98.3%.
For `Cc1ccc(-c2csc3c(=O)[nH]c(N4CCCC(C(=O)NCc5cccnc5)C4)nc23)cc1` (stereo not shown) [CBK215546], the viability at 28.5 h, 10 µM is 91.7%.
As to `COCCCNC(=O)C1CCCN(c2nc3c(-c4ccc(C)cc4)csc3c(=O)[nH]2)C1` (stereo not shown) [CBK215548], the viability at 28.5 h, 10 µM amounted to 83.1%.
As for `O=C(C1CCCN(c2nc3c(-c4ccccc4)csc3c(=O)[nH]2)C1)N1CCOCC1` (stereo not shown) [CBK215582], the viability at 28.5 h, 10 µM was 83.7%.
As to `COc1cccc(CNC(=O)C2CCN(c3nc4c(-c5cccc(C)c5)csc4c(=O)[nH]3)CC2)c1` [CBK215603], the viability at 28.5 h, 10 µM is 84.9%.
In the case of `Cc1cccc(-c2csc3c(=O)[nH]c(N4CCC(C(=O)NCc5cccnc5)CC4)nc23)c1` [CBK215624] it was 86.8%.
